Results reported in patent US7714006B1, “Methods of modifying the bioavailability of metaxalone” (King Pharmaceuticals Research & Development, Inc., priority 2001, dated 2010).

Test: Effects of age and gender on PK parameters, 2×400 mg data from studies 103 and 105, fed and fasted
Details: human, in vivo
Source text: This analysis considers the effects of age and gender on three pharmacokinetic (PK) parameters of metaxalone under fed and fasted conditions. The three parameters are: • Cmax: the observed maximum plasma concentration (ng/mL); • AUC(last): the area under the curve (AUC) to the last quantifiable concentration, as measured by the trapezoidal rule (ng-hr/mL); • AUC(inf): the AUC extrapolated to infinity (ng-hr/mL).
Because the distributions of these parameters tend to be skewed, and in accordance with generally accepted practice, all analyses are carried out after computing the natural logarithm (ln) of the values of the PK parameters from individual subjects.
The report is based primarily on two similarly designed studies in which PK parameters were determined under fed and fasted conditions for the 2×400 mg dose of metaxalone: • Study AN151607-103 (hereafter referred to as the 103 study): a four-period, randomized crossover trial with treatment conditions 2×400 mg with food, 2×400 mg without food, 1×800 mg with food, 1×800 mg without food; and • Study ELN151607-105 (hereafter referred to as the 105 study): a two-period, randomized crossover trial with treatment conditions 2×400 mg with food and 2×400 mg without food.
Using the 2×400 mg data from studies 103 and 105, Section 2.2 presents the results of analyses of the effects of age on the fed values of Cmax, AUC(last), and AUC(inf). Section 2.3 similarly reports the results of analyses of fasted values of these parameters using the 2×400 mg data from these two studies. Section 2.4 repeats the analyses of Sections 2.2 and 2.3 using the data from the 1×800 mg treatment of study 103, in combination with the 2×400 mg data from study 105. Finally, Sections 2.5 and 2.6 report the results of similar analyses using the data from studies 101 and 106, respectively.
The primary results are based on the results of linear regression models investigating the effects of age on each PK parameter. Descriptive analyses reporting parametric (Pearson) and nonparametric (Spearman) correlation coefficients between age and each PK parameter are also provided. The Pearson correlation coefficient measures the extent of the linear association between two variables and is most appropriate when the data are approximately bivariate normally distributed with no outliers. The Spearman correlation coefficient is based on the ranks of the variables. It is less sensitive to outliers, but is often also a less sensitive measure of the strength of association.
In study 103, 59 subjects were administered the 2×400 mg dose under fed conditions. The mean age was 26.1 years, with a range from 18 to 50 years. (A total of 64 subjects began the study, of which the average age was 25.6 years. Five subjects were not included in the pharmacokinetic analysis.) In study 105, 44 subjects were administered the 2×400 mg dose under fed conditions. The mean age in study 105 was 56.0 years; with a range from 18 to 81 years.
First, in the combined group of 59+44=103 subjects, Pearson and Spearman correlation coefficients between age and each of the three PK parameters were computed. The correlation coefficients and two-sided p-values from the test of the null hypothesis of no association are shown below in TABLE IIIa:
Linear regression models using the natural logarithm of each of the three PK parameters as the dependent variable and age as the independent variable were fitted in order to estimate the magnitude of the associations with age.
In study 103, the same 59 subjects were administered the 2×400 mg dose under fasted conditions. Similarly, the 44 subjects from study 105 were administered the 2×400 mg dose under fasted conditions.
First, in the combined group of n=103 subjects, Pearson and Spearman correlations between age and each of the three PK parameters were computed. The correlation coefficients and two-sided p-values from the test of the null hypothesis of no association are shown below in TABLE IVa: […]

Cc1cc(C)cc(OCC2CNC(=O)O2)c1 (stereo not shown) [metaxalone, 5-[(3,5-dimethylphenoxy)methyl]-2 oxazolidinone]
Percentage increase in AUC(inf) from age 20 to age 70 (both): 74% | Percentage increase in AUC(inf), 70-year-old vs 20-year-old (both): 95% | Percentage increase in AUC(last) from age 20 to age 70 (both): 78% | Percentage increase in AUC(last), 70-year-old vs 20-year-old (both): 98% | Percentage increase in Cmax from age 20 to age 70 (both): 84% | Percentage increase in Cmax, 70-year-old vs 20-year-old (both): 103% | Pearson correlation coefficients age vs PK parameters, range in magnitude (female): 0.49-0.60
